Measurements as given in patent EP4458804A1, “METHOD FOR PRODUCING AN OBJECT, PHENALEN-1-ONE COMPOUND AND USE THEREOF” (TriOptoTec GmbH, priority 2023, dated 2024).

Columns and labels:
[1] = Comparative examples 23-25: impregnation of unsuitable plastics or with a fluorescent dye, visual evaluation; format: physicochemical; settings: 0,2 mm starke Polycarbonatfolien; 60 min Einwirkzeit
Method: Die Farbstoffkonzentration in der Imprägnierlösung betrug jeweils 1 mM bei Phenalen-1-on- und Curcuminderivaten, 0,1 mM bei Prophycenderivaten.
Es wurden 0,2 mm starke Polycarbonatfolien eingesetzt und mit Imprägnierlösungen enthaltend die Photokatalysatoren F-24b, F-64a oder F-73 behandelt.
Es wurden TPU Folien eingesetzt und mit einer Imprägnierlösung enthaltend den Farbstoff 2-Chloro-6-(3-hydroxypropylamino)-1-phenalenon (CAS 113722-81-9) behandelt.

[2] = Leaching test A: screening immersion 24 h, UV-VIS of supernatant (Beispiel 10 A); format: physicochemical; set-up: Abs. nach Auswaschen: unit not given here; settings: for Berechneter Verlust in %: Rezeptur 1 nach Beispiel 1; for Abs. nach Auswaschen: Rezeptur 1 nach Beispiel 1, supernatant
Method: Um das Auswaschen der verschiedenen Farbstoffe in den Kunststofffolien zu beurteilen, wurde ein Immersionstest in deionisiertem Wasser mit einem pH-Wert von (6 ± 1) (oder gegebenenfalls anderen Lösungsmitteln) und einer Wassertemperatur von (22 ± 3) °C für 24 Stunden durchgeführt.
Dazu wurde ein Folienstück definierter Größe (3 cm x 3 cm) imprägniert (nach Rezeptur 1, Beispiel 1) und anschließend für 24 Stunden in eine definierte Menge deionisiertem Wasser (12,0 mL) gegeben und durch eine Schüttelplatte in Bewegung gehalten. Nach der angegeben Immersionszeit wurde die Folie entnommen und der Überschuss im UV-VIS Spektrometer vermessen, um die ausgewaschene Menge an Farbstoff zu bestimmen. Die Menge wird durch die definierte Größe der Folie und definierte Flüssigkeitsmenge auf einen Quadratzentimeter zurückgerechnet.
Dieser Immersionstest diente dazu, das Auswaschverhalten verschiedener Farbstoffe aus verschiedenen Kunststofffolien zu beurteilen. Weiter sollte er dabei helfen, verschiedene Farbstoffklassen oder verschiedene Farbstoffderivate einer Farbstoffklasse bezüglich dieser Charakteristik miteinander zu vergleichen.
Die zugeschnittenen Folien werden in einem geeigneten Behälter vollständig mit dem Prüfmedium (typischerweise deionisiertes Wasser) bedeckt. Anschließend wird der Behälter zugedeckt und auf die Schüttelplatte aufgebracht. Bei geringer Geschwindigkeit der Platte wird für 24 Stunden gewartet. Nach der Immersion wurden 3 mL des Überstandes durch Absorptionsspektroskopie vermessen.
Die Auswertung erfolgte über das Verhältnis der max. Absorptionswerte einer reinen Farbstofflösung definierter Konzentration und des vermessenen Überstandes. Die Ergebnisse sind in Tabelle 50 dargestellt. Tabelle 50: Auswaschverhalten verschiedener Photokatalysatoren nach Immersionstest A

S. aureus = assay: Bactericidal effect after steam sterilisation (Beispiel 20), modified ISO 22196; format: cell-based; settings: TPU Folie, Rezeptur 1, 1 mM F-24b; after Dampfsterilisation 121°C, 2 h
From the text: (§1) Die Bestimmung der antimikrobiellen Aktivität erfolgte nach einer modifizierten Version der ISO 22196:2011-08 ("Messung von antibakterieller Aktivität auf Kunststoff- und anderen porenfreien Oberflächen", Ausgabedatum: 2011-08).
(§2) Bei der Testdurchführung wurde ein dünner Flüssigkeitsfilm, in dem die Bakterien enthalten sind (1,25 x 10^4 /cm^2), direkt auf die Probenkörper (3 x 3 cm) aufgebracht. Direkt nach Beimpfung wurden von der Nullprobe die Bakterien von den Probenkörperoberflächen mittels Ultraschall und Vortexen abgelöst und die Keimzahl (KBE (engl. CFU), Kolonie-bildende Einheit) bestimmt (t0-Wert).
(§3) Nach 4h wurden überlebende Bakterien von den Probenkörperoberflächen mittels Ultraschall und Vortexen abgelöst und die Keimzahl bestimmt (t4-Wert).
(§4) Im Unterschied zu der in der ISO 22196:2011-08 beschreibenen Methode wurde das Inokulum nicht mit einer Folie abgedeckt und die Inkubationszeit wurde von 24 auf 4 Stunden reduziert. Weiterhin wurden die Probenkörper der Proben 3 und 4 mit Licht der Intensität 20mW/cm2 für 10min belichtet, um eine biozide Wirkung nach Bestrahlung mit elektromagnetischer Strahlung zu bestimmen.
Weiterhin wurde die Belastbarkeit des Photokatalysators in der Folie mit zusätzlichen Tests wie Tempern bei 80°C und Dampfsterilisation bei 121°C untersucht.

[3] = Incorporation of photocatalysts into TPU films versus process time, absorption spectroscopy against blank film (Beispiele 7a-9b); format: physicochemical; settings: TPU Folie, Rezeptur 1; Beispiel 7b, Tabelle 41
Method: Im nächsten Schritt wurde die Verwendbarkeit der verschiedene Photokatalysatorklassen, ausgewählt aus Phenalen-1-on-Derivaten, Curcumin-Derivaten und Porphycen-Derivaten, mit unterschiedlichen Eigenschaften - von neutral unpolar bis ionisch polar - auf Ihre Verwendbarkeit und Wirkung im Verfahren untersucht.
Zur Beurteilung der optimalen Prozesszeit bei Einsatz der Photokatalysatoren, wurden TPU Folienstücke nach Beschreibung in Beispiel 4 zu je 1, 2, 5 und 10 min in den Imprägnierlösungen behandelt, gegebenenfalls auch 30 und 60 min bei undeutlichen Ergebnissen.
Als Basisformulierung wurde Rezeptur 1 nach Beispiel 2 verwendet.
Nach der angegebenen Prozesszeit wurden die Folie entnommen, mit Wasser gewaschen und für 1h bei 40°C getrocknet/abgelüftet.
Die Folien wurden durch Absorptionsspektroskopie gegen ein Blank-Folienstück direkt vermessen, beim Maximum der Absorption des Photokatalysators. Dabei ergaben sich in Abhängigkeit der Prozesszeit folgende Werte, die in den Tabellen 40 bis

S.enterica = assay: Antibacterial activity of impregnated films, modified ISO 22196 with illumination (Beispiel 12); format: cell-based; settings: TPU Folie, Rezeptur 1, 1 mM F-24b; Licht 20mW/cm2 für 10min; Gram-negativ
From the text: as §1, §2, §3, §4
(§5) Verwendet wurden TPU Folienstücke, die nach dem in Beispiel 4 beschriebenen Verfahren mit Rezeptur 1 behandelt wurden. Rezeptur 1 wurde hergestellt nach Beispiel 2. […] Der Test wurde in Anlehnung an ISO 22196 nach oben beschriebener Methode durchgeführt.

E.coli 10536 = assay: as above; format: cell-based; settings: TPU Folie, Rezeptur 1, 1 mM F-24b; Licht 20mW/cm2 für 10min; Gram-negativ
From the text: as §1, §2, §3, §4, §5

Acinetobacter pitii = assay: as above; format: cell-based; settings: TPU Folie, Rezeptur 1, 1 mM F-24b; Licht 20mW/cm2 für 10min; Gram-negativ
From the text: as §1, §2, §3, §4, §5

verschiedene Virusstämme = assay: Antiviral activity of impregnated films following ISO 21702 with illumination (Beispiel 17); settings: TPU film, Rezeptur 1, 1 mM, light 20mW/cm^2 for 83 min
[4] = medium 5% Neutralseife, plastic PVC
[5] = medium 5% Neutralseife, plastic TPU

SMILES: CC(C)(O)c1cc[n+](CC2=Cc3cccc4cccc(c34)C2=O)cc1 [F-24b]
- Verfärbung [1]: keine Verfärbung
- Berechneter Verlust in % [2, 4]: 3,8%
- Abs. nach Auswaschen [2, 4]: 0,024
- Berechneter Verlust in % [2, 5]: 10,7%
- Abs. nach Auswaschen [2, 5]: 0,061
- Berechneter Verlust in % ([2]; medium 70% IPA, plastic PVC): 25,4%
- Abs. nach Auswaschen ([2]; medium 70% IPA, plastic PVC): 0,160
- Berechneter Verlust in % ([2]; medium 70% IPA, plastic TPU): 34,0%
- Abs. nach Auswaschen ([2]; medium 70% IPA, plastic TPU): 0,194
- Berechneter Verlust in % ([2]; medium Wasser, plastic EVA): 2,6%
- Abs. nach Auswaschen ([2]; medium Wasser, plastic EVA): 0,015
- Berechneter Verlust in % ([2]; medium Wasser, plastic SEPS): 4,7%
- Abs. nach Auswaschen ([2]; medium Wasser, plastic SEPS): 0,027
- Berechneter Verlust in % ([2]; medium Wasser, plastic TPU): 1,4%
- Abs. nach Auswaschen ([2]; medium Wasser, plastic TPU): 0,008
- Log10 Reduktion Hauptprobe (S. aureus): 1,5 ± 0,3 log10
- Abs. 1 min [3]: 0,185
- Abs. 2 min [3]: 0,198
- Abs. 5 min [3]: 0,257
- Abs. 10 min [3]: 0,456
- Log10 Reduktion Hauptprobe (S.enterica): 4,2 ± 0,6 log10
- Log10 Reduktion Hauptprobe (E.coli 10536): 4,8 ± 0,4 log10
- Log10 Reduktion Hauptprobe (Acinetobacter pitii): 3,0 ± 0,7 log10
- Log10 Reduktion Hauptprobe (verschiedene Virusstämme; Virus: Influenza A Virus (H1N1)): 2,5 ± 0,5 log10
- Log10 Reduktion Hauptprobe (verschiedene Virusstämme; Virus: Modified Vaccinia Virus Ankara (MVA)): 4,6 ± 0,6 log10
